Experimental findings from US11766434B2, “Pyrimidinone derivatives as CDC7 inhibitors” (Cancer Research Technology Limited, priority 2016, dated 2023) are described below.

SMILES strings stand for the structures.

Assay [1] deals with Cdc7/ASK (Homo sapiens, UniProt O00311). The assay can be described thus: Cdc7 biochemical assay Method 1: 384 well ELISA, MCM2 whole protein substrate, Phospho MCM2 (S53) antibody. Set-up: purchased. The following applies: ATP 2 μM, 90 minutes, read-out: Biochemical method 1 (pIC50) (converted). The procedure: This protocol describes a method for assaying Cdc7/ASK for activity. The assay is a 384 well ELISA assay, utilising a whole protein substrate (MCM2) and an antibody against Phospho MCM2 (S53). This site is thought to be specific to Cdc7/ASK phosphorylation and the assay has been validated using knockout mutants.
• TBS: 25 mM Tris pH 7.2, 150 mM NaCl. (Dilute 10× stock by 1:10). • Wash Buffer: TBS+0.05% Tween 20. (Add 100 mL 1 M Tris pH 7.2, 120 mL 5 M NaCl and 2 mL 100% Tween 20 per 4 L). • Kinase Reaction Buffer: 50 mM Tris-HCl pH 8.5, 10 mM MgCl2, 1 mM DTT. (Dilute 10× stock by 1:10 and add 100 μL 1M DTT per 100 mL prior to assay). • Diethanolamine Buffer: 1 M diethanolamine pH 9.8, 0.5 mM MgCl2. • Stop Solution: 1 M NaOH. • MCM2 was expressed and purified in-house and used in the assay at a final assay concentration of 436 ng/well. • Cdc7/ASK is purchased from commercial suppliers and used in the assay at a final assay concentration of 37.97 ng/well or 20.63 nM. • ATP used as a final assay concentration of 2 μM. • Primary Antibody: Rabbit anti-Phospho MCM2 (S53 Antibody (BL3353)), is purchased from commercial suppliers at 0.2 mg/mL and used at a final assay concentration by diluting 1:800 in TBS. • Secondary Antibody: Anti-Rabbit/AP Antibody is supplied is purchased from commercial suppliers at 1 mg/mL and used at a final assay concentration by diluting 1:2000 in TBS. • Development Reagent: Dissolve one 20 mg PNPP tablet (Sigma, product N2765, 20 mg per tablet) per 20 mL diethanolamine Buffer (or one 5 mg PNPP tablet per 5 mL diethanolamine buffer). Cover in foil and leave shaking on a roller shaker at room temperature for up to an hour to dissolve. Methods • 1. Add 20 μL 1× working stock of Substrate (MCM2) in TBS to all wells of a clear, 384 well, Nickel-chelate microplate to give a final concentration of 250 ng/well. Incubate at room temperature for at least 1 hour. Plates can be pre-coated for 1 hour and stored at 4° C. for up to 8 days. • 2. Wash with TBS+0.05% Tween 20 (80 μL x 3). • 3. Add 2 μL 10× test compounds, including the positive control, in 40% DMSO/water to ‘test’ wells. Add 2 μL 40% DMSO/water to ‘control’ and ‘blank’ wells. The final DMSO concentration will be 4%. • 4. Add 13 μL CDCl7/ASK Kinase (1.5× stock) in Kinase Reaction Buffer to ‘test’ and ‘control’ wells to give a final concentration of […]. Add 13 μL Kinase Reaction Buffer to ‘blank’ wells. • 5. Add 5 μL ATP (4× stock) in Kinase Reaction Buffer to all wells to give a final concentration of 2 μM. • 6. Incubate at room temperature for 90 minutes. • 7. Wash with TBS+0.05% Tween 20 (80 μL x 3). • 8. Add 20 μL 1× working solution of Primary Antibody in TBS to all wells. Incubate at room temperature for 30 minutes. • 9. Wash with TBS+0.05% Tween 20 (80 μL x 3). • 10. Add 20 μL 1× working solution of Secondary Antibody in TBS to all wells. Incubate at room temperature for 30 minutes. • 11. Wash with TBS+0.05% Tween 20 (80 μL x 3). • 12. Add 20 μL 1× Development Reagent to all wells. • 13. Incubate at room temperature for 2 hours. Stop the reaction by adding 20 μL Stop Solution to all wells and record Absorbance on a Pherastar plate reader.
Percentage inhibition values were calculated from absorbance values, using the no compound (DMSO) and no enzyme control values as 0% and 100% inhibition, respectively. IC50 determination was performed with ExcelFit software (IDBS) using curve fit 205. Z′ factors were determined for each plate tested and were all above 0.5.
(In an ELISA, binding on a coated surface is turned into a signal by an enzyme label.)

Assay [2] addresses Cdc7 (Homo sapiens, UniProt O00311). As to the kind of experiment: Cdc7 cell pharmacodynamics assay Method 1: pS53MCM2 levels in HCT116 cells. Type of assay: cell-based. Details: endogenous in cells. The following applies: 6 hours treatment, read-out: Biomarker Method 1 (pEC50) (converted). An excerpt:
This protocol describes a method to investigate the inhibition of Cdc7 activity of compounds by measuring pS53MCM2 levels in cells after treatment.
• HCT116 cells (wild type P53 positive) • McCoys 5A media (PAA Laboratories Ltd, E15-022) • 10% FCS (Sera Laboratories International Ltd, EU000F Batch: 108005) • 100× L-Glutamine (Invitrogen, 25030-024) • D-PBS without CaCl2 and MgCl2 (Invitrogen, ref. 14190-094) • Trypsin/EDTA (Invitrogen 25300-054) • 2% BSA in PBS • Cell Extraction Buffer (Invitrogen FNN0011) • Protease inhibitor cocktail (Sigma P-2714) • PMSF 0.3M stock in DMSO (Sigma P7626) • Antibody—rabbit pMCM2 Ser53 (Bethyl #A300-756A) • Antibody—goat MCM2 (Bethyl #A300-122A) • Antibody—goat Anti Rabbit IgG HRP (Perbio Science UK Ltd 31462) • 1×PBS • FACE Wash buffer (0.02% Triton X100 in 1×PBS) • SuperSignal ELISA Pico Chemiluminescent Substrate (Perbio Science UK Ltd 37070) Method • 72 hours prior to the start of the experiment plate 1×10^6 HCT116 cells in a 150 cm^2 flask in complete McCoys 5A media (+10% FCS+1× L-glutamine). • Plate 20,000 HCT116 cells per well in standard TC treated 96 well plate in 100 μL complete McCoys 5A media. • Allow cells to settle overnight in incubator set at 37° C. and 5% CO2. • Remove intermediate plate from fridge and place at 37° C. overnight to allow to equilibrate. • Cell treatment: cell assay plate 100 μL; daughter to cell transfer volume 3.33 μL; daughter volume 45 μL; mother plate to daughter volume 5 μL. • Once all cells are treated remove the cells to the incubator and incubate for 6 hours. • Dilute the capture antibody (total MCM2 #A300-122A) 1 in 250 in the required volume of PBS (5 mL per assay plate) and add 50 μL to each well of a Hybond plate excluding wells 12E to 12H. In these wells add 50 μL PBS. Seal the plate and incubate at room temperature fora minimum of 2 hours. • Defrost aliquot of Invitrogen Cell Extraction Buffer (FNN0011) on ice and supplement with appropriate volume of both Sigma protease inhibitor cocktail (P-2714) and PMSF (final cone 1 mM from a […] in DMSO). • After the 6 hour cell treatment time tap out the media from the assay plates and place them in the −70° C. freezer for at least 5 minutes. • Remove plates from freezer and add 20 μL of ice cold complete lysis buffer on ice. Incubate cells for 30 minutes at 4° C. • Add 80 μL per well 2% BSA. • Transfer 80 μL from the lysis plate to the same wells in the capture/ELISA plate. Cover with plate seal and incubate plates overnight at 4° C. • Wash plates with PBS, remove any residual remaining liquid and add 50 μL per well of pMCM2 Ser53 antibody (#A300-756A) diluted 1 in 100 in 2% BSA. Cover plate and incubate at room temperature for 2 hours with gentle shaking. • Wash plates with PBS, remove any residual remaining liquid and Incubate with 50 μL goat anti rabbit antibody (1 in 800 dilution in 2% BSA) for 1 hour at room temperature. • Wash plates with PBS, remove any residual remaining liquid and add 50 μL mixed SuperSignal Pico substrate. • Incubate each plate for 5 minutes at room temperature shielding the plates from direct light (with a cover plate). Read plates with the luminescent detection. Method 2

Chain of Cdc7 (O00311 whole entry): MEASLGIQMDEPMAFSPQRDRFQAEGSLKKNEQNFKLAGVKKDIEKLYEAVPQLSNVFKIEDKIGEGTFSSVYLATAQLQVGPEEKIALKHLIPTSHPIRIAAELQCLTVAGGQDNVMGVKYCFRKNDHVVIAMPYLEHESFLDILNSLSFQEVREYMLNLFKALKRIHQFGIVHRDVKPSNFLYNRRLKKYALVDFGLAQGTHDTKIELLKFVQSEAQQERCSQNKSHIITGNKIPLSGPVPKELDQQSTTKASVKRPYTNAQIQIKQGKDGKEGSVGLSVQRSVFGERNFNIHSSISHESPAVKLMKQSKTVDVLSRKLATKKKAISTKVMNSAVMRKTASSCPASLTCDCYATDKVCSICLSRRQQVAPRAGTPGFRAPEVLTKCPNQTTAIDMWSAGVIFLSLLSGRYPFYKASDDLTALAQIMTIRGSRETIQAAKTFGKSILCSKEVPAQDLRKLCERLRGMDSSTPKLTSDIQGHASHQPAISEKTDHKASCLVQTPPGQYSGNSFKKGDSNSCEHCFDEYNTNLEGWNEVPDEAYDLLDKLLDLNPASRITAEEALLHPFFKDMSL
Chain of Cdc7 (Q9UBU7 whole entry partner): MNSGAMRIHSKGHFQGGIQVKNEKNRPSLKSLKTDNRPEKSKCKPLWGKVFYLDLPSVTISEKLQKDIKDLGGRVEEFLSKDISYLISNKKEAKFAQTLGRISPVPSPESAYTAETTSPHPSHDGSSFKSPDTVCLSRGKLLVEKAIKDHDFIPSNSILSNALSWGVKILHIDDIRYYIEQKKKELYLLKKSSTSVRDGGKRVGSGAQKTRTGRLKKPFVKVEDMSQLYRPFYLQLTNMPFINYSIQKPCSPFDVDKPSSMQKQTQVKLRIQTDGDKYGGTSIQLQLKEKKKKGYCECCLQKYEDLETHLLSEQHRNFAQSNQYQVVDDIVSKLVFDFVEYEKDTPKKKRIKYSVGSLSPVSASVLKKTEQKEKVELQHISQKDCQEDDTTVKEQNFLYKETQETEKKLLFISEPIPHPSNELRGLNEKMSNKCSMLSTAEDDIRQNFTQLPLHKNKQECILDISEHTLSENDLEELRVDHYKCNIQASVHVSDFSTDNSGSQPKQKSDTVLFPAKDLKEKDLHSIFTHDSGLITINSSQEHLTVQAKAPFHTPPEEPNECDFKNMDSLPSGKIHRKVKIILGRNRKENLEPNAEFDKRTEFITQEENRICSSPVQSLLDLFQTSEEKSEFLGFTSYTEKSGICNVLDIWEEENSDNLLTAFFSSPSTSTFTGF
Chain of Cdc7/ASK (O00311 whole entry): as the sequence (O00311 whole entry) above
Chain of Cdc7/ASK (Q9UBU7 whole entry partner): as the sequence (Q9UBU7 whole entry partner) above

For `Cc1ncsc1-c1nc(C2CCOCC2)c(F)c(=O)[nH]1` [Compound 8, 5-fluoro-2-(4-methylthiazol-5-yl)-4-tetrahydropyran-4-yl-1H-pyrimidin-6-one], the IC50 in assay [1] is 30.2 nM. In assay [2], the EC50 is 331 nM.

As to `Cc1ncoc1-c1nc(C2CCOCC2)c(Cl)c(=O)[nH]1` [Compound 12, 5-chloro-2-(4-methyloxazol-5-yl)-4-tetrahydropyran-4-yl-1H-pyrimidin-6-one], the IC50 in assay [1] is 363 nM. For the same molecule, the EC50 in assay [2] is 3630 nM.

Regarding `CCc1ncsc1-c1nc(C2CCOCC2)c(Cl)c(=O)[nH]1` [Compound 13, 5-chloro-2-(4-ethylthiazol-5-yl)-4-tetrahydropyran-4-yl-1H-pyrimidin-6-one], in assay [1], the IC50 was 33.1 nM. Moreover, the EC50 in assay [2] was 1100 nM.

Consider `CCc1[nH]ncc1-c1nc(C2CCOCC2)c(Cl)c(=O)[nH]1` [Compound 15, 5-chloro-2-(5-ethyl-1H-pyrazol-4-yl)-4-tetrahydropyran-4-yl-1H-pyrimidin-6-one], for which the IC50 in assay [1] is 37.2 nM. For the same molecule, in assay [2], the EC50 is 1740 nM.

As for `Cc1ncsc1-c1nc(C2CCN(C(=O)c3cc(C)n(C)n3)CC2)c(Cl)c(=O)[nH]1` [Compound 23, 5-chloro-4-[1-(1,5-dimethylpyrazole-3-carbonyl)-4-piperidyl]-2-(4-methylthiazol-5-yl)-1H-pyrimidin-6-one], the IC50 in assay [1] was 3.31 nM. Besides, in assay [2], the EC50 is 3890 nM.

As to `Cc1cc(C(=O)N2CCC(c3nc(-c4scnc4C)[nH]c(=O)c3Cl)CC2)no1` [Compound 25, 5-chloro-4-[1-(5-methylisoxazole-3-carbonyl)-4-piperidyl]-2-(4-methylthiazol-5-yl)-1H-pyrimidin-6-one], the IC50 in assay [1] was 4.79 nM. Besides, the EC50 in assay [2] is 447 nM.

As for `Cc1ncsc1-c1nc(N2CCC(O)CC2)c(Cl)c(=O)[nH]1` [Compound 29, 5-chloro-4-(4-hydroxy-1-piperidyl)-2-(4-methylthiazol-5-yl)-1H-pyrimidin-6-one], in assay [1], the IC50 is 3.16 nM. Also, the EC50 in assay [2] was 158 nM.

`Cc1ncsc1-c1nc(N2CCC(C)CC2)c(Cl)c(=O)[nH]1` [Compound 30, 5-chloro-4-(4-methyl-1-piperidyl)-2-(4-methylthiazol-5-yl)-1H-pyrimidin-6-one]: the IC50 in assay [1] was 3.47 nM. The EC50 in assay [2] is 251 nM.

On to `Cc1ncsc1-c1nc(N2CCNC(C(F)(F)F)C2)c(Cl)c(=O)[nH]1` (stereo not drawn) [Compound 31, 5-chloro-2-(4-methylthiazol-5-yl)-4-[3-(trifluoromethyl)piperazin-1-yl]-1H-pyrimidin-6-one], for which the IC50 in assay [1] is 3.63 nM. The EC50 in assay [2] was 85.1 nM.

In the case of `Cc1ncsc1-c1nc(N2CCN[C@H](C)C2)c(Cl)c(=O)[nH]1` [Compound 32, 5-chloro-4-[(3R)-3-methylpiperazin-1-yl]-2-(4-methylthiazol-5-yl)-1H-pyrimidin-6-one], in assay [1], the IC50 was 8.71 nM. Also, the EC50 in assay [2] is 263 nM.

As to `Cc1ncsc1-c1nc(N2CCC(CO)CC2)c(Cl)c(=O)[nH]1` [Compound 33, 5-chloro-4-[4-(hydroxymethyl)-1-piperidyl]-2-(4-methylthiazol-5-yl)-1H-pyrimidin-6-one], the IC50 in assay [1] is 2.69 nM. Moreover, in assay [2], the EC50 is 100 nM.

Turning to `Cc1ncsc1-c1nc(N2CCCC(F)(F)C2)c(Cl)c(=O)[nH]1` [Compound 35, 5-chloro-4-(3,3-difluoro-1-piperidyl)-2-(4-methylthiazol-5-yl)-1H-pyrimidin-6-one], the IC50 in assay [1] is 1.41 nM. The EC50 in assay [2] was 24 nM.

Consider `Cc1ncsc1-c1nc(N2CCCC(CO)C2)c(Cl)c(=O)[nH]1` (stereo not drawn) [Compound 36, 5-chloro-4-[3-(hydroxymethyl)-1-piperidyl]-2-(4-methylthiazol-5-yl)-1H-pyrimidin-6-one], for which, in assay [1], the IC50 was 5.89 nM. Further, the EC50 in assay [2] is 158 nM.

In the case of `Cc1ncsc1-c1nc(N2CCN[C@@H](C)C2)c(Cl)c(=O)[nH]1` [Compound 37, 5-chloro-4-[(3S)-3-methylpiperazin-1-yl]-2-(4-methylthiazol-5-yl)-1H-pyrimidin-6-one], in assay [1], the IC50 is 3.31 nM. For the same molecule, in assay [2], the EC50 is 110 nM.

Consider `Cc1ncsc1-c1nc(N2CCNCC2)c(Cl)c(=O)[nH]1` [Compound 38, 5-chloro-2-(4-methylthiazol-5-yl)-4-piperazin-1-yl-1H-pyrimidin-6-one], for which the IC50 in assay [1] is 2.29 nM. Moreover, in assay [2], the EC50 is 83.2 nM.
